Test results from ChEMBL document CHEMBL4483862, “Open-source discovery of chemical leads for next-generation chemoprotective antimalarials” (2018).

System: Plasmodium berghei
Experiment: Luciferase/luciferin-expressing antifolate-resistant parasites were used to infect a culture of HepG2 cells that were pre-incubated with compounds. Infected hepatocytes emit light due to the luciferase reaction. Assay results are presented as the percent inhibition of light emission compared to control. […]
Assay type: functional
Conditions: sporozoite; for IC90: read-out: LUCIFERASE INFECTION ASSAY - IC90

Row | Compound | IC90 | also measured
1 | Cc1ccc(-c2cnn3c(N4CCOCC4)cc(C)nc23)cc1 | > 10.7 µM | IC50 (PBLUC_HILL_SLOPE 2.15, PBLUC_R_SQUARED 0.469, read-out: LUCIFERASE INFECTION ASSAY - IC50): 5.44 µM
2 | Clc1cccc(CNc2nnnn2-c2ccccc2)c1 | > 10 µM | IC50 (PBLUC_HILL_SLOPE 2.12, PBLUC_R_SQUARED 0.274, read-out: LUCIFERASE INFECTION ASSAY - IC50): 8.09 µM
3 | CN1N=C2c3ccccc3CCC2C1c1ccc(Cl)cc1 (stereo not given) | 4 µM | IC50 (PBLUC_HILL_SLOPE 2.13, PBLUC_R_SQUARED 0.455, read-out: LUCIFERASE INFECTION ASSAY - IC50): 1.42 µM
4 | O=C(NC1CCN(c2nccc(C(F)(F)F)n2)CC1)c1cccs1 | 4.85 µM | IC50 (PBLUC_HILL_SLOPE 2.13, PBLUC_R_SQUARED 0.731, read-out: LUCIFERASE INFECTION ASSAY - IC50): 1.72 µM
5 | Cc1cccnc1NC(=O)c1ccc(Cl)c(S(=O)(=O)N(Cc2ccccc2)c2ccccc2)c1 | > 10 µM | IC50 (PBLUC_HILL_SLOPE 2.12, PBLUC_R_SQUARED 0.451, read-out: LUCIFERASE INFECTION ASSAY - IC50): 5.79 µM
6 | COc1ccc(-c2nnc(SC(C)C(=O)NC(C)c3ccc(Cl)cc3Cl)[nH]2)cc1 (stereo not given) | > 10 µM | IC50 (PBLUC_HILL_SLOPE 2.09, PBLUC_R_SQUARED 0.0748, read-out: LUCIFERASE INFECTION ASSAY - IC50): 5.53 µM
7 | CCN(Cc1ccc2c(c1)OCO2)C(=O)/C=C/c1c(C)nc2sc(C)cn12 | > 10 µM | IC50 (PBLUC_HILL_SLOPE 2.08, PBLUC_R_SQUARED 0.691, read-out: LUCIFERASE INFECTION ASSAY - IC50): 8.61 µM
8 | Cc1nc(C2CC2)nc2sc(-c3nc(-c4cccs4)no3)c(N)c12 | > 10 µM | IC50 (PBLUC_HILL_SLOPE 2.09, PBLUC_R_SQUARED 0.41, read-out: LUCIFERASE INFECTION ASSAY - IC50): 4.67 µM
9 | COc1cccc(/C=C/C(=O)NC2CCCc3ccccc32)c1OC(F)F (stereo not given) | > 10 µM | IC50 (PBLUC_HILL_SLOPE 2.15, PBLUC_R_SQUARED 0.14, read-out: LUCIFERASE INFECTION ASSAY - IC50): > 10 µM
10 | CCOc1cc2ccccc2cc1C(=O)NOCc1ccccc1 | > 10 µM | IC50 (PBLUC_HILL_SLOPE 2.14, PBLUC_R_SQUARED 0.146, read-out: LUCIFERASE INFECTION ASSAY - IC50): > 10 µM
11 | CCC(=O)Nc1nc2ccc(NC(=O)c3cc(OC)cc(OC)c3)cc2s1 | > 8.56 µM | IC50 (PBLUC_HILL_SLOPE 2.13, PBLUC_R_SQUARED 0.461, read-out: LUCIFERASE INFECTION ASSAY - IC50): 5.13 µM
12 | CN1CCN(c2ccc(-c3cn4c(-c5cccc(N(C)C)c5)cnc4cn3)cn2)CC1 | > 7.98 µM | IC50 (PBLUC_HILL_SLOPE 2.11, PBLUC_R_SQUARED 0.385, read-out: LUCIFERASE INFECTION ASSAY - IC50): 6.15 µM
13 | CSc1cnc(-n2c(-c3ccc(C)cc3)cs/c2=N\C(=O)c2ccccc2)nc1 | > 10 µM | IC50 (PBLUC_HILL_SLOPE 2.11, PBLUC_R_SQUARED 0.145, read-out: LUCIFERASE INFECTION ASSAY - IC50): > 10 µM
14 | Cc1ccc(Nc2nnc(SC(C)C(=O)NC(C)c3ccc(F)cc3)s2)cc1 (stereo not given) | > 10 µM | IC50 (PBLUC_HILL_SLOPE 2.15, PBLUC_R_SQUARED 0.495, read-out: LUCIFERASE INFECTION ASSAY - IC50): 4.9 µM
15 | Cc1csc(C(C#N)C(=O)CSc2nnc(Nc3ccc(OC(F)(F)F)cc3)s2)n1 (stereo not given) | > 10 µM | IC50 (PBLUC_HILL_SLOPE 2.13, PBLUC_R_SQUARED 0.0111, read-out: LUCIFERASE INFECTION ASSAY - IC50): 7.36 µM
16 | Cc1cc(Cl)ccc1OCC(=O)c1c(-c2ccccc2)[nH]c2ccccc12 | > 10 µM | IC50 (PBLUC_HILL_SLOPE 2.14, 2.22, PBLUC_R_SQUARED 0.753, 0.563, read-out: LUCIFERASE INFECTION ASSAY - IC50): 6.03 µM
17 | O=S(=O)(c1ccc2ccccc2c1)N1CCCC1c1nnc2ccccn12 (stereo not given) | 5.59 µM | IC50 (PBLUC_HILL_SLOPE 2.1, PBLUC_R_SQUARED 0.614, read-out: LUCIFERASE INFECTION ASSAY - IC50): 1.96 µM
18 | COc1cc(-c2nc3ccc(NC(=O)c4cccs4)cn3n2)cc(OC)c1OC | 6.23 µM | IC50 (PBLUC_HILL_SLOPE 2.1, PBLUC_R_SQUARED 0.836, read-out: LUCIFERASE INFECTION ASSAY - IC50): 2.19 µM
19 | O=C(COC(=O)c1cn(-c2ccccc2)nc1-c1ccccc1)Nc1ccc(Cl)c(S(=O)(=O)N2CCOCC2)c1 | > 10 µM | IC50 (PBLUC_HILL_SLOPE 2.11, PBLUC_R_SQUARED 0.445, read-out: LUCIFERASE INFECTION ASSAY - IC50): 5.37 µM
20 | CC(C)N(C(=O)CSc1nnnn1C)c1ccc(Nc2ccccc2)cc1 | > 10 µM | IC50 (PBLUC_HILL_SLOPE 2.1, PBLUC_R_SQUARED 0.364, read-out: LUCIFERASE INFECTION ASSAY - IC50): > 10 µM

Row | Compound | IC90 | also measured
21 | O=c1nc(Nc2ccc(SC(F)(F)F)cc2)c2ccccc2o1 | 0.441 µM | IC50 (PBLUC_HILL_SLOPE 2.14, PBLUC_R_SQUARED 0.975, read-out: LUCIFERASE INFECTION ASSAY - IC50): 0.158 µM
22 | CSc1ncc(C(=O)OCc2cc(F)cc3c2OCOC3)n1-c1ccc(F)cc1 | > 10 µM | IC50 (PBLUC_HILL_SLOPE 2.14, PBLUC_R_SQUARED 0.0712, read-out: LUCIFERASE INFECTION ASSAY - IC50): 5.17 µM
23 | CN(C)c1nc(N)nc(/C(C#N)=C/c2ccc(N(c3ccccc3)c3ccccc3)cc2)n1 | > 10 µM | IC50 (PBLUC_HILL_SLOPE 2.12, PBLUC_R_SQUARED 0.0159, read-out: LUCIFERASE INFECTION ASSAY - IC50): 7.93 µM
24 | CC(=O)c1c(C)[nH]c(-c2csc(-c3ccc(C)cc3C)n2)c1C | 5.96 µM | IC50 (PBLUC_HILL_SLOPE 2.12, PBLUC_R_SQUARED 0.351, read-out: LUCIFERASE INFECTION ASSAY - IC50): 2.12 µM
25 | COc1cc(CNCc2ccc3c(c2)OCO3)ccc1OCc1ccc(F)cc1 | > 8.35 µM | IC50 (PBLUC_HILL_SLOPE 2.11, PBLUC_R_SQUARED 0.727, read-out: LUCIFERASE INFECTION ASSAY - IC50): 5.34 µM
26 | CCC1(CC)CC(=O)N(CC(O)COc2ccc(C(C)(C)C)cc2)C1=O (stereo not given) | > 10 µM | IC50 (PBLUC_HILL_SLOPE 2.11, PBLUC_R_SQUARED 0.442, read-out: LUCIFERASE INFECTION ASSAY - IC50): 5.07 µM
27 | C=CCNC(=S)N1CCc2sccc2C1c1ccc(Cl)cc1 (stereo not given) | > 9.46 µM | IC50 (PBLUC_HILL_SLOPE 2.11, PBLUC_R_SQUARED 0.465, read-out: LUCIFERASE INFECTION ASSAY - IC50): 4.12 µM
28 | COc1ccc(-c2cnc3cnc(-c4cccnc4)cn23)cc1 | 4.75 µM | IC50 (PBLUC_HILL_SLOPE 2.13, PBLUC_R_SQUARED 0.733, read-out: LUCIFERASE INFECTION ASSAY - IC50): 1.7 µM
29 | CC(C)c1ccc(-c2nnc(NC(=O)CNC(=O)c3cccc(S(=O)(=O)N(C)C)c3)s2)cc1 | > 10 µM | IC50 (PBLUC_HILL_SLOPE 2.11, PBLUC_R_SQUARED 0.538, read-out: LUCIFERASE INFECTION ASSAY - IC50): 5.39 µM
30 | COc1ccc(-c2cnc3cnc(-c4cnn(Cc5ccccc5)c4)cn23)cc1 | > 8.65 µM | IC50 (PBLUC_HILL_SLOPE 2.08, PBLUC_R_SQUARED 0.432, read-out: LUCIFERASE INFECTION ASSAY - IC50): 7.68 µM
31 | O=C(COc1ccc2[nH]c3ccccc3c(=O)c2c1)N1CCN(c2ccc(F)cc2)CC1 | 7.49 µM | IC50 (PBLUC_HILL_SLOPE 2.14, PBLUC_R_SQUARED 0.725, read-out: LUCIFERASE INFECTION ASSAY - IC50): 2.68 µM
32 | Cc1ccc(N(Cc2ccccc2)S(=O)(=O)c2ccc(S(C)(=O)=O)cc2)cc1 | > 10 µM | IC50 (PBLUC_HILL_SLOPE 2.12, PBLUC_R_SQUARED 0.413, read-out: LUCIFERASE INFECTION ASSAY - IC50): 5.72 µM
33 | CCCc1cc(NCc2ccccn2)n2ncc(-c3ccccc3)c2n1 | > 9.61 µM | IC50 (PBLUC_HILL_SLOPE 2.13, PBLUC_R_SQUARED 0.117, read-out: LUCIFERASE INFECTION ASSAY - IC50): 5.6 µM
34 | Cc1ccc(-c2nn(-c3ccccc3)cc2/C=C/C(=O)NCc2ccc(-n3ccnc3)nc2)cc1 | > 10 µM | IC50 (PBLUC_HILL_SLOPE 2.1, PBLUC_R_SQUARED 0.668, read-out: LUCIFERASE INFECTION ASSAY - IC50): 5.12 µM
35 | O=C1CCc2cc(-c3csc(NC(=O)c4ccc(-n5cnc6ccccc65)cc4)n3)ccc2N1 | 3.68 µM | IC50 (PBLUC_HILL_SLOPE 2.11, 11.5, PBLUC_R_SQUARED 0.409, 0.367, read-out: LUCIFERASE INFECTION ASSAY - IC50): 3.63 µM
36 | CC1CCc2c(sc3nc(Sc4nnnn4-c4ccccc4)nc(N)c23)C1 (stereo not given) | > 10 µM | IC50 (PBLUC_HILL_SLOPE 2.12, PBLUC_R_SQUARED 0.375, read-out: LUCIFERASE INFECTION ASSAY - IC50): 3.69 µM
37 | CC1CCC(NC(=O)[C@H](Cc2ccccc2)NC(=O)C(c2ccccc2)c2ccccc2)CC1 (stereo not given in full) | > 10 µM | IC50 (PBLUC_HILL_SLOPE 2.1, PBLUC_R_SQUARED 0.545, read-out: LUCIFERASE INFECTION ASSAY - IC50): 4.82 µM
38 | CC(=O)N1CCc2cc(NC(=O)c3cc(C)n(C4CCCCC4)c3C)ccc21 | 0.349 µM | IC50 (PBLUC_HILL_SLOPE 2.13, PBLUC_R_SQUARED 0.772, read-out: LUCIFERASE INFECTION ASSAY - IC50): 0.125 µM
39 | O=C(Nc1ccc(Oc2ccc(OC(F)(F)F)cc2)cc1)C1CC1 | 1.54 µM | IC50 (PBLUC_HILL_SLOPE 2.12, PBLUC_R_SQUARED 0.759, read-out: LUCIFERASE INFECTION ASSAY - IC50): 0.548 µM
40 | O=C(Nc1ccc(N2CCN(c3ncccc3C(F)(F)F)CC2)nc1)c1cccs1 | 0.867 µM | IC50 (PBLUC_HILL_SLOPE 2.12, PBLUC_R_SQUARED 0.656, read-out: LUCIFERASE INFECTION ASSAY - IC50): 0.307 µM
